In PubChem BioAssay AID2060496 (Molecular Pharmacology Branch, DTP, NCI, 2025):
Where “and” joins values, the source holds several entries; their conditions need not be identical. Equal entries are not always repeated. Each block holds one molecule with its values, some of them ahead of it.

System: 276233-004-R-J1-PDC complex spheroid viability
Assay: Anticancer human tumor 276233-004-R-J1-PDC patient-derived colon adenocarcinoma cell line growth inhibition [GQUAD]
Details: for viability, T/C: stronger effect = lower value
Description: DNA G-quadruplex Stabilizer Agents in Combinations in Complex Spheroids
A high-throughput screen of multi-cell type tumor spheroids was designed to identify active combinations of DNA G-quadruplex stabilizer agents and targeted small molecules. Complex spheroids include a stromal component modeled by human endothelial cells (HUVEC) and fibroblasts modeled by human mesenchymal stem cells (MSCs). The concentration ranges selected for each drug and investigational agent were based upon clinically achievable concentrations if the clinical Cmax of the agent was known.
Compounds. The drugs and investigational agents: pidnarulex (CX-5461; NSC782164), APTO-253 (NSC789042), BRACO-19 (NSC847499), peposertib (NSC802822), ceralasertib (NSC780249), elimusertib (NSC800525), camonsertib (NSC841442), AZD-1390 (NSC803789), olaparib (NSC753686), talazoparib (NSC767125), ART-558 (NSC835418), sotorasib (NSC818433), MRTX-1133 (NSC836407), SN-38 (NSC673596), topotecan (NSC609699), etoposide (NSC141540), doxorubicin (NSC123127), gemcitabine (NSC613327), 5-fluorouracil (NSC19893), paclitaxel (NSC125973), vemurafenib (NSC761431), panobinostat (NSC761190), R-306465 (JNJ-16241199; NSC773264), adavosertib (NSC754352), TP-3654 (NSC805149), carboplatin (NSC241240), KSQ-4279 (NSC840948), and staurosporine (NSC755774) were obtained from the National Cancer Institute (NCI) Developmental Therapeutics Program Chemical Repository (34). The FDA-approved anticancer drug set is available from the NCI Developmental Therapeutics Program. […] The stock solutions were prepared in dimethyl sulfoxide (DMSO, Sigma-Aldrich, St. Louis, MO, cat. D2650) at 800-fold the tested concentration and stored at -70 degrees C prior to their use. All drugs and investigational agents were tested over a range starting from a high concentration at or near the clinical Cmax and decreasing in half-log increments. If the clinical Cmax for an agent had not been determined, the highest concentration tested was 10 microM.
2.3 Cell Culture. All cells were maintained in an incubator at 37 degrees C and 5% CO2 with 95% humidity. The PDC lines were cultured according to standard operating procedures established by the NCI PDMR. All PDCs were thawed and cultured in Matrigel-coated flasks prepared with a working solution of 1X Ham's F-12 nutrient mix, without supplementation (Invitrogen, cat. 11765054), 100 U/mL penicillin-streptomycin (Invitrogen, cat. 15140122), and 2.5% Matrigel (Corning Inc., cat. 354248) for the first three passages. The 857933-349-R-J2-PDC line was cultured in 6C/Colon 1B media, which includes advanced DMEM/F-12 (Thermo Fisher Scientific, cat. 12634028), 10 mM HEPES (Thermo Fisher Scientific, cat. 15630080), 1X GlutaMAX supplement (Thermo Fisher Scientific, cat. 35050061), 0.1 mg/mL primocin (InvivoGen, cat. ant-pm-2), 10% defined fetal bovine serum, heat inactivated (HyClone Laboratories Inc., cat. SH30070.03HI), 50% L-WRN conditioned media (ATCC, cat. CRL-3276), 1.25 mM N-Acetyl-L-cysteine (Sigma-Aldrich, cat. A9165), 10 mM nicotinamide (Sigma-Aldrich, cat. N0636), 1X B-27 supplement (Thermo Fisher Scientific, cat. 17504044), 1X N-2 supplement (Thermo Fisher Scientific, cat. 17502048), 10 microM Y-27632 dihydrochloride (Tocris Bioscience, cat. 1254), and 50 ng/mL human EGF recombinant protein (Thermo Fisher Scientific, cat. PHG0311). The 485176-168-R4-J1-PDC line was cultured in Panc media, which includes all 6C/Colon 1B media components plus 100 ng/mL human FGF-10 (Thermo Fisher Scientific, cat. 100-26), 500 nM SB-431542 (Selleckchem, cat. S1067), and gastrin (Tocris, cat. 3006).
[…]
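Also: spheroids exposed to drugs for seven days.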
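For viability, T/C in this document: 100% = DMSO vehicle control viability.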

IC50 (curve of first compound, second compound 0.0316 µM): > 10 µM | IC50 (curve of first compound, second compound 0.1 µM): > 10 µM | IC50 (curve of first compound, second compound 0.316 µM): > 10 µM | IC50 (curve of first compound, second compound 1 µM): > 10 µM | IC50 (curve of first compound, second compound 3.16 µM): > 10 µM | IC50 (curve of first compound, second compound 10 µM): > 10 µM
Structure (SMILES): Nc1ccn(C2OC(CO)C(O)C2(F)F)c(=O)n1 (centres undefined) + Cc1cnc(CNC(=O)c2c(=O)c3ccc(N4CCCN(C)CC4)nc3n3c2sc2ccccc23)cn1
viability, T/C (second compound 0.0316 µM, first compound 0.0316 µM): 82.7% | viability, T/C (second compound 0.0316 µM, first compound 0.1 µM): 77.7% | viability, T/C (second compound 0.0316 µM, first compound 0.316 µM): 83.8% | viability, T/C (second compound 0.0316 µM, first compound 1 µM): 81.1% | viability, T/C (second compound 0.0316 µM, first compound 3.16 µM): 88.4% | viability, T/C (second compound 0.0316 µM, first compound 10 µM): 72.6% | viability, T/C (second compound 0.1 µM, first compound 0.0316 µM): 89.8% | viability, T/C (second compound 0.1 µM, first compound 0.1 µM): 87.9% | viability, T/C (second compound 0.1 µM, first compound 0.316 µM): 80.7% | viability, T/C (second compound 0.1 µM, first compound 1 µM): 93.3% | viability, T/C (second compound 0.1 µM, first compound 3.16 µM): 84.4% | viability, T/C (second compound 0.1 µM, first compound 10 µM): 79.9% | viability, T/C (second compound 0.316 µM, first compound 0.0316 µM): 80% | viability, T/C (second compound 0.316 µM, first compound 0.1 µM): 97.9% | viability, T/C (second compound 0.316 µM, first compound 0.316 µM): 86.6% | viability, T/C (second compound 0.316 µM, first compound 1 µM): 80.4% | viability, T/C (second compound 0.316 µM, first compound 3.16 µM): 77% | viability, T/C (second compound 0.316 µM, first compound 10 µM): 76.7% | viability, T/C (second compound 1 µM, first compound 0.0316 µM): 94.2% | viability, T/C (second compound 1 µM, first compound 0.1 µM): 78.8% | viability, T/C (second compound 1 µM, first compound 0.316 µM): 105% | viability, T/C (second compound 1 µM, first compound 1 µM): 83.8% | viability, T/C (second compound 1 µM, first compound 3.16 µM): 82.5% | viability, T/C (second compound 1 µM, first compound 10 µM): 79.9% | viability, T/C (second compound 3.16 µM, first compound 0.0316 µM): 80% | viability, T/C (second compound 3.16 µM, first compound 0.1 µM): 68% | viability, T/C (second compound 3.16 µM, first compound 0.316 µM): 91.8% | viability, T/C (second compound 3.16 µM, first compound 1 µM): 73.2% | viability, T/C (second compound 3.16 µM, first compound 3.16 µM): 66.3% | viability, T/C (second compound 3.16 µM, first compound 10 µM): 62.3% | viability, T/C (second compound 10 µM, first compound 0.0316 µM): 65.8% | viability, T/C (second compound 10 µM, first compound 0.1 µM): 75.2% | viability, T/C (second compound 10 µM, first compound 0.316 µM): 69.5% | viability, T/C (second compound 10 µM, first compound 1 µM): 78.2% | viability, T/C (second compound 10 µM, first compound 3.16 µM): 65.2% | viability, T/C (second compound 10 µM, first compound 10 µM): 57.5%

IC50 (curve of compound): 3.04 µM and > 10 µM and 9.44 µM
Structure (SMILES): COc1cccc2c1C(=O)c1c(O)c3c(c(O)c1C2=O)CC(O)(C(=O)CO)CC3OC1CC(N)C(O)C(C)O1 (centres undefined)
viability, T/C (compound 0.0316 µM): 90.2% and 99.5% and 87% | viability, T/C (compound 0.1 µM): 90.8% and 78.6% and 69.9% | viability, T/C (compound 0.316 µM): 84.7% and 99.6% and 86.4% | viability, T/C (compound 1 µM): 67.4% and 66.3% and 80.7% | viability, T/C (compound 3.16 µM): 49.4% and 58.4% and 58.3% | viability, T/C (compound 10 µM): 44.2% and 70.7% and 49.6%
